Consider three compounds from patent US20250288600A1, “USES OF FARNESOID X RECEPTOR AGONISTS” (priority 2022, published 2025).

Molecules are shown by their SMILES. “Also recorded” adds a separate entry of the source.

Data set [1] deals with mouse model of alcoholic steatohepatitis. In words: Mouse model of alcoholic steatohepatitis (ALD), Lieber-DeCarli ethanol diet, oral dosing Day 1-14. In kind it is in vivo. The conditions noted are these: for fibrosis as analyzed by Pico Sirius Red: 30 mpk, no fibrosis at baseline or in the vehicle group; for serum bile acids: versus vehicle treated ALD mice. The text has this: The objective of this study was to assess efficacy of the test articles obeticholic acid (OCA), Compound 1 and Compound 2 on liver and intestinal pathology in a mouse model of alcoholic steatohepatitis.
• Species: Mouse • Strain: C57BL/6J (JAX #000664) • Condition: Purpose-bred, naïve • Source: Jackson Laboratories • Number of Females: 138 (119 on study+19 spares) • Target Age at the 10 weeks
Diet: 5CR4 chow until Day −26; Lieber-DeCarli liquid diet Days […] to Day 15. Upon arrival at the Testing Facility, all animals were placed on PMI Nutrition International Certified Rodent Chow No. 5CR4 ad libitum. During the chow diet phase (until Day −26), the diet in meal form may be provided to individual animals as warranted by clinical signs (e.g., broken/damaged incisors or other health changes).
On Day −26, all animals received 50 mL ethanol diet (1% v/v ethanol). The percentage of alcohol in the liquid diet was increased by 1% v/v every day until reaching 5% (v/v) on day −22 and is maintained at 5% v/v until the end of the study.
Dose Route and timing: Oral Gavage (Group 2-7) Once Daily (Day 1-14). The first day of dosing was designated as Day 1. The dose formulations were stirred continuously during dosing. The doses were given using a syringe with attached gavage cannula.
Terminal plasma and tissue samples were gathered. Plasma was analyzed for TG, TC, ALT, AST, ALP, FGF15 (LCMS), TBIL, and endotoxin.
Frozen liver samples from main study were analyzed in duplicates for the estimation of liver lipids including triglycerides and cholesterol. Liver samples were kept on dry ice until transferred to sample management and stored in a freezer set to maintain […] until analysis.
The liver and small intestine collected from all animals in Groups 1-7 (Main Study) were fixed in 10% neutral buffered formalin for 24-48 hours and transferred to 70% EtOH, stored under ambient conditions and transferred to the histopathology lab at Testing Facility.
Formalin fixed liver tissues were trimmed to slides and stained with H&E and picrosirius red stains. Slides were scored by Charles River board certified veterinarian pathologists.
Formalin fixed small intestine tissues were trimmed to slides and stained with H&E and IHC antibodies (PV-1, ZO-1 and Occludin). Slides were scored by board certified veterinarian pathologists.

For data set [2] the following is noted: higher than OCA; cited from earlier work.
For data set [3] the following is noted: like ursodeoxycholic acid; cited from earlier work.
The conditions of data set [4]: promptly secreted in the bile mostly as such; cited from earlier work.
Data set [5] has as its system male rats. In words: Irwin study (neurologic function). Particulars: tested up to 180 mg/kg.
The subject of data set [6] is dogs. In words: Respiratory function safety pharmacology in dogs. The conditions noted are these: single doses up to 300 mg/kg.
In data set [7] the test system is healthy subjects. Put plainly: Phase 1 dose-escalation study in healthy subjects.
In data set [8] the target is T1, TGR5 (Homo sapiens, UniProt Q8TDU6).
T1 sequence (Q8TDU6 1-330): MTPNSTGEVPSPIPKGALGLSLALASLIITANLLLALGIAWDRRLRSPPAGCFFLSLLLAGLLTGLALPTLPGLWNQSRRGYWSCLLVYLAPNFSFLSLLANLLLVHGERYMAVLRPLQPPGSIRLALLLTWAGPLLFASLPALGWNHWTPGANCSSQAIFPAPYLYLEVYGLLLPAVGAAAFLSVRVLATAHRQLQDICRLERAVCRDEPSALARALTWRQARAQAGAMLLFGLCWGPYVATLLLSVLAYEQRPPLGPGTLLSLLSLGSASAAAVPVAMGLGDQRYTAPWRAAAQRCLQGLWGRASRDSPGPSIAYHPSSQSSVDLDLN
Particulars: cited from earlier work.

For the compound `CC[C@H]1[C@@H](O)[C@@H]2[C@H]([C@@H](O)C[C@]3(C)[C@@H]([C@H](C)CCC(=O)O)CC[C@@H]23)[C@@]2(C)CC[C@@H](O)C[C@@H]12` [Compound 1, 3a,7a,11β-trihydroxy-6α-ethyl-5β-cholan-24-oic acid], the “survival (in words)” value in data set [1] (10 mg/kg and 30 mg/kg groups) was “improved survival better than OCA; also recorded: greatly improved survival”. The “steatosis (graded 1-5 by a pathologist)” value in data set [1] (10 mpk group, liver histology) is recorded as “close to statistical significance”. Moreover, the “fibrosis as analyzed by Pico Sirius Red” value in data set [1] is on record as “minimal increase in fibrosis”. Besides, in data set [1] (both doses), the serum bile acids result is reported as “significantly lowered”. For the same compound, the “water solubility relative to obeticholic acid (OCA)” value in data set [2] is reported as 16 fold. Besides, in data set [3], the critical micellular concentration result is on record as “high”. Moreover, in data set [4], the hepatic residence time result was “very low”. For the same compound, the neurologic function entry in data set [5] is recorded as “did not alter neurologic function”. Further, the respiratory function entry in data set [6] is given as “not affected”. In data set [7] (5 mg once daily for 14-days), the tolerability result is listed as “well tolerated”. The adverse events entry in data set [7] (doses less than 50 mg, single or repeat doses, healthy subjects) was “no AEs of clinical concern”.

Regarding `CC[C@H]1[C@@H](O)[C@@H]2[C@H](CC[C@]3(C)[C@@H]([C@H](C)CCC(=O)O)CC[C@@H]23)[C@@]2(C)CC[C@@H](O)C[C@@H]12` [OCA, obeticholic acid, reference compound], the “fibrosis as analyzed by Pico Sirius Red” value in data set [1] is on record as “minimal increase in fibrosis”. Further, the “% Alive” value in data set [1] (Dose 30 mkd, PO QD Day 1-14, includes animals for PK) turned out to be 53%.

For the compound `CC[C@H]1[C@@H](O)C2C3CC[C@H]([C@H](C)CCC(=O)O)[C@@]3(C)C[C@H](O)C2[C@@]2(C)CCCC[C@@H]12` (stereo partly drawn) [Compound 2], in data set [1], the “fibrosis as analyzed by Pico Sirius Red” value was “minimal increase in fibrosis”. The serum bile acids entry in data set [1] (high dose) is “significantly lowered”. Besides, in data set [1] (terminal plasma), the bilirubin entry is reported as “decreased” and the “serum ALP” value is recorded as “increased”. For the same compound, the “activity on TGR5” value in data set [8] is “no activity”.
